Experimental data taken from paper PMC7576608, “Mechanisms of telomerase inhibition by oxidized and therapeutic dNTPs” (Nature Communications, 2020).
Several values for one entry are separate records, joined by “and”; a condition that tells them apart may be missing. Equal entries are not always repeated.

Tests used:
[1] = target: T1, telomerase (Homo sapiens, UniProt O14746); assay: Direct telomerase repeat addition assay with radiolabeled dNTPs: dNTP titration, repeat processivity R1/2; type: biochemical; parameters: made in house; anti-FLAG immunopurification, eluted with 3xFLAG peptide; conditions: for Processivity R 1/2: (TTAGGG)3 primer, remaining three natural dNTPs at cellular concentration
T1 sequence (O14746 whole entry): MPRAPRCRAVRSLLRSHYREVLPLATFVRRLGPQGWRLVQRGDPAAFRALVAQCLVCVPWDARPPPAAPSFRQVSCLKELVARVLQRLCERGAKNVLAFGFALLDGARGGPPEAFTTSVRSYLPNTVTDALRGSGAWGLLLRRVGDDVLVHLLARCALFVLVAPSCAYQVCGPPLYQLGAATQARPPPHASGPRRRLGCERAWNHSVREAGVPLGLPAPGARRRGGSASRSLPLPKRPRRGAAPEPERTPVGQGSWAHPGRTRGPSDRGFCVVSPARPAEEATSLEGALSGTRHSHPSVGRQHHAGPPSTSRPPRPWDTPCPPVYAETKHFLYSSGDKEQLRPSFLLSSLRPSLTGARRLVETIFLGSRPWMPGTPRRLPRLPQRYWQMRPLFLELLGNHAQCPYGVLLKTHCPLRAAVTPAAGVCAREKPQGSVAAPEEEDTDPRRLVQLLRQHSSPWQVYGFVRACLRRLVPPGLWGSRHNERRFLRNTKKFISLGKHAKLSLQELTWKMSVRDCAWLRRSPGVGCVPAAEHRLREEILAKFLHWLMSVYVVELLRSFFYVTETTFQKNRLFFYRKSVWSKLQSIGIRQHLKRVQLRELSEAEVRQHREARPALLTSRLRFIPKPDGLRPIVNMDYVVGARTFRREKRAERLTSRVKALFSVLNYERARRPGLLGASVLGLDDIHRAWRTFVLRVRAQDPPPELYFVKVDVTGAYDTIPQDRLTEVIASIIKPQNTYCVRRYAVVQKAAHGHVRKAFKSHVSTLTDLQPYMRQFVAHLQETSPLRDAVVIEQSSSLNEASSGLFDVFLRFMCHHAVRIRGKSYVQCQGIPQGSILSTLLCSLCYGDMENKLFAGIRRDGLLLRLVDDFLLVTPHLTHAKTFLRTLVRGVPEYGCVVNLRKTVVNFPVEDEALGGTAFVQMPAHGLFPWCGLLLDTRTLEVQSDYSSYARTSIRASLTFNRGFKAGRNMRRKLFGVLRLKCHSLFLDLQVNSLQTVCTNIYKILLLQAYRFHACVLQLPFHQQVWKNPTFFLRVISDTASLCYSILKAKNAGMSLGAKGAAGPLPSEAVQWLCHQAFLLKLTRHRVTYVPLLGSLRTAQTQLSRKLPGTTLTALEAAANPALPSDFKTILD
Method: This preparation, termed super telomerase, has kinetic properties similar to endogenous telomerase (Supplementary Fig. 1)[29]–[31]. […] Repeat processivity was measured using the convention of calculating the number of repeats synthesized before half of the DNA substrates dissociate from telomerase[33] (Supplementary Fig. 2). 8-oxo-dGTP served as a control since it is an established telomerase chain terminator[12].
Fig. 2 Oxidized and therapeutic dNTPs inhibit telomerase processivity. […] The loading control (*) was a ^32P-end labeled 18-mer oligonucleotide. Numbers on the left indicate the number of added repeats; letters on the right indicate template residue. Images are representative of three independent experiments.
The telomerase assay was as described. […] Reactions containing the modified dNTPs (Trilink Biotechnologies) substituted for their natural dNTP analog are indicated in the figure legends. The reactions were started by the addition of 3 μl (~35 fmol) of immunopurified telomerase eluent, incubated at 37 °C for 1 h, then terminated with 2 μl of […] EDTA and heat inactivated at 65 °C for 20 min. ^32P-end labeled 18-mer loading control (8 fmol) was added to the terminated reactions before purification with an Illustra Microspin G-25 column (GE Healthcare). An equal volume of loading buffer (94% formamide, 0.1× TBE, 0.1% bromophenol blue, 0.1% xylene cyanol) was added to the reaction eluent from the G-25 spin column. The samples were heat denatured for 10 min at 100 °C and loaded onto a 14% denaturing polyacrylamide gel (7 M urea, 1× TBE) and electrophoresed for 90 min at constant 38 W. Samples were imaged using a Typhoon phosphorimager (GE Healthcare).
The processivity was calculated as described[40],[67]. Repeat processivity from the direct telomerase extension assays was calculated as R1/2 (equivalent to the half-time for decay in an exponential time course), which represents the median length of DNA product formed, expressed in terms of number of telomere repeats. First, the total volume counts for each product band extend by one or more telomere repeats were obtained using Image Quant TL. The volume counts were then normalized by dividing by the number of radiolabeled guanosines incorporated into the extended products based on the number of repeats added, termed corrected volume (corr vol). The “percent left behind” (%LB) was calculated for each product band by summing the counts for that product band and for every product band below (shorter products), divided by the total counts for the lane, and then multiplied by 100. The natural log of (100−%LB) was calculated and then plotted vs. repeat number for each product length. A linear regression line was fit to the data to determine the slope of the line. The R1/2 value was calculated by dividing −ln(2) by the slope of each fitted line (R1/2 = −ln(2)/slope).
Number of Repeats Number of Repeats Number of Repeats Number of Repeats
Supplementary Fig 2.Telomerase dNTP titrations and processivity calculations. Telomerase reactions were conducted with (TTAGGG) 3 primer 1 and cellular-concentration dNTPs except that the […]
The loading control (LC) was a 32P-end labeled 18-mer. Numbers on the left indicate the number of added repeats. (d) Processivity was calculated as R1/2 (see Methods). (e) The natural log of (100-%LB) was plotted vs repeat number. A straight line was fit to the data and the R1/2 was calculated by dividing –ln(2) by the slope of each line. Plots shown from one experiment. Images ( a-c) and plots ( e) are representative of, and data are mean + s. d. (d) from, three independent experiments. Source data are provided as a Source Data file.
(1 picture or pasted object on this page, not shown here)

[2] = target: T1, telomerase; assay: Telomerase extension after insertion of modified dNTP (percent of product terminated at each template position); type: biochemical; parameters: made in house; anti-FLAG immunopurification, eluted with 3xFLAG peptide; conditions: for Percent of Total Product: Mean; for Extension after insertion of the modified dNTP (in words): 50 μM each dNTP, analog substituted for natural dNTP
Method: Direct telomerase assays were conducted with 5 nM ^32P-end labeled primer a and d Primer 3 (AGGGTT)3, b Primer 1 (TTAGGG)3, or c Primer 2 […]. […] Products were separated on denaturing gels. Letters on the y-axis of the graph indicate the template base; P indicates unextended 18-mer primer. Graphs represent percent of product terminated at each template position as a function of total products. Images are representative of, and data are the mean ± s.d. from, three independent experiments. Source data are provided as a Source Date file.
The reactions were started by the addition of 3 μl of immunopurified telomerase eluent, incubated at 37 °C for 1 h, then terminated with 2 μl of […] and heat inactivated at 65 °C for 20 min. An equal volume of loading buffer (94% formamide, 0.1× TBE, 0.1% bromophenol blue, 0.1% xylene cyanol) was added to the reaction eluent. The samples were heat denatured for 10 min at 100 °C and loaded onto a 14% denaturing acrylamide gel (7 M urea, 1× TBE) and electrophoresed for 90 min at constant 38 W. Samples were imaged using a Typhoon phosphorimager (GE Healthcare). Percent primer extension was calculated with ImageQuant TL 8.2 by measuring the intensity of each product band and dividing by the total radioactivity in the lane or total products, as indicated in the figure legends.

[3] = indicated dNTP at 0.5 μM, n1-n3
[4] = Fig 4b, Primer 1 (TTAGGG)3, 50 μM each dATP, dTTP and dGTP or 6-thio-dGTP, terminated at rA3
[5] = Fig 4b, Primer 1, 50 μM each dATP, dTTP and dGTP or 6-thio-dGTP, terminated at rA4
[6] = Fig 4b, Primer 1, 50 μM each dATP, dTTP and dGTP or 6-thio-dGTP, terminated at rC1
[7] = Fig 4b, Primer 1, 50 μM each dATP, dTTP and dGTP or 6-thio-dGTP, terminated at rC2
[8] = Fig 4b, Primer 1, 50 μM each dATP, dTTP and dGTP or 6-thio-dGTP, terminated at rC6
[9] = Fig 4b, Primer 1, 50 μM each dATP, dTTP and dGTP or 6-thio-dGTP, terminated at rU5
[10] = Fig 4c, Primer 2, 50 μM each dATP, dTTP and dGTP or 6-thio-dGTP, terminated at rA3
[11] = Fig 4c, Primer 2, 50 μM each dATP, dTTP and dGTP or 6-thio-dGTP, terminated at rA4
[12] = Fig 4c, Primer 2, 50 μM each dATP, dTTP and dGTP or 6-thio-dGTP, terminated at rC1
[13] = Fig 4c, Primer 2, 50 μM each dATP, dTTP and dGTP or 6-thio-dGTP, terminated at rC2
[14] = Fig 4c, Primer 2, 50 μM each dATP, dTTP and dGTP or 6-thio-dGTP, terminated at rC6
[15] = Fig 4c, Primer 2, 50 μM each dATP, dTTP and dGTP or 6-thio-dGTP, terminated at rU5
[16] = Fig 4d, Primer 3 (AGGGTT)3, 50 μM each dATP, dTTP and dGTP or 6-thio-dGTP, terminated at rU5
[17] = Fig 4d, Primer 3, 50 μM each dATP, dTTP and dGTP or 6-thio-dGTP, terminated at rA3
[18] = Fig 4d, Primer 3, 50 μM each dATP, dTTP and dGTP or 6-thio-dGTP, terminated at rC1
[19] = Fig 4d, Primer 3, 50 μM each dATP, dTTP and dGTP or 6-thio-dGTP, terminated at rC2
[20] = Fig 4d, Primer 3, 50 μM each dATP, dTTP and dGTP or 6-thio-dGTP, terminated at rC6

Compound | Processivity R 1/2 ([1]; indicated dNTP at 0.5 μM, Mean) | Processivity R 1/2 [1, 3] | Processivity R 1/2 ([1]; indicated dNTP at 1 μM, Mean) | Processivity R 1/2 ([1]; indicated dNTP at 1 μM, n1-n3) | Processivity R 1/2 ([1]; indicated dNTP at 5 μM, Mean) | Processivity R 1/2 ([1]; indicated dNTP at 24 μM, Mean) | Percent of Total Product [2, 4] [%] | Percent of Total Product [2, 5] [%] | Percent of Total Product [2, 6] [%] | Percent of Total Product [2, 7] [%] | Percent of Total Product [2, 8] [%] | Percent of Total Product [2, 9] [%] | Percent of Total Product [2, 10] [%] | Percent of Total Product [2, 11] [%] | Percent of Total Product [2, 12] [%] | Percent of Total Product [2, 13] [%] | Percent of Total Product [2, 14] [%] | Percent of Total Product [2, 15] [%] | Percent of Total Product [2, 16] [%] | Percent of Total Product [2, 17] [%] | further results
Nc1nc2c(ncn2C2CC(O)C(COP(=O)(O)OP(=O)(O)OP(=O)(O)O)O2)c(=O)[nH]1 (stereo not shown) [dGTP] | 1.69 | 1.96 and 1.27 and 1.84 | 1.78 | 1.97 and 1.53 and 1.85 | 2.39 | 5.11 | 7.65 | 5.26 | 0.66 | 0.40 | 4.56 | 0.95 | 5.15 | 4.76 | 7.39 | 1.97 | 6.22 | 1.19 | 4.50 | 2.21 | ln(100-%LB) ([1]; 0.5μM titrated dNTP, telomere repeat 8): -4.24; ln(100-%LB) ([1]; 0.5μM titrated dNTP, telomere repeat 9): -4.48; ln(100-%LB) ([1]; 0.5μM titrated dNTP, telomere repeat 10): -4.75; ln(100-%LB) ([1]; 0.5μM titrated dNTP, telomere repeat 11): -4.99; Percent of Total Product [2, 18]: 1.49%; Percent of Total Product [2, 19]: 0.72%; Percent of Total Product [2, 20]: 8.67%
Nc1nc2c(ncn2C2CC(O)C(COP(=O)(O)OP(=O)(O)OP(=O)(O)O)O2)c(=S)[nH]1 (stereo not shown) [6-thio-dGTP] | 0 | 0 | 0 | 0 | 0 | 0 | 11.46 | 5.50 | 37.27 | 6.46 | 34.87 | 3.92 | 49.91 | 4.12 | 23.36 | 22.82 | 8.70 | 0.81 | 4.61 | 1.16 | Processivity R 1/2 ([1]; indicated dNTP at 5 μM, n1-n3): 0; Processivity R 1/2 ([1]; indicated dNTP at 24 μM, n1-n3): 0; Extension after insertion of the modified dNTP (in words) [2]: not a chain terminator; Percent of Total Product [2, 18]: 49.66%; Percent of Total Product [2, 19]: 7.38%; Percent of Total Product [2, 20]: 37.00%
Nc1nc(O)nc2c1ncn2C1CC(O)C(COP(=O)(O)OP(=O)(O)OP(=O)(O)O)O1 (stereo not shown) [2-OH-dATP] | 0.46 | 0.46 and 0.39 and 0.53 | 0.43 | 0.30 and 0.39 and 0.59 | 0.57 | 0.66 |  |  |  |  |  |  |  |  |  |  |  |  |  |  | YIntercept (best-fit line of ln(100-%LB) vs repeat number) ([1]; 2-OH-dATP 0.5μM, single experiments): 2.12 and 4.01 and 2.03; YIntercept (best-fit line of ln(100-%LB) vs repeat number) ([1]; 2-OH-dATP 1μM, single experiments): 2.17 and 3.36 and 2.82; ln(100-%LB) ([1]; 2-OH-dATP 5μM, 1 telomere repeat, single experiments): 1.89 and 1.96 and 2.94; YIntercept (best-fit line of ln(100-%LB) vs repeat number) ([1]; 2-OH-dATP 5μM, single experiments): 3.87 and 3.78 and 4.14; ln(100-%LB) ([1]; 2-OH-dATP 25μM, 1 telomere repeat, single experiments): 2.24 and 2.45; ln(100-%LB) ([1]; 2-OH-dATP 25μM, 2 telomere repeats, single experiments): 0.15 and 0.23; YIntercept (best-fit line of ln(100-%LB) vs repeat number) ([1]; 2-OH-dATP 25μM, single experiments): 3.63 and 4.14; Processivity R 1/2 ([1]; indicated dNTP at 5 μM, n1-n3): 0.42 and 0.69 and 0.61; Processivity R 1/2 ([1]; indicated dNTP at 24 μM, n1-n3): 0.46 and 0.70 and 0.83; Extension after insertion of the modified dNTP (in words) [2]: translocation to add the next repeat is greatly compromised; Percent of Total Product ([2]; Fig 4a, Primer 3, 50 μM each dTTP, dGTP and dATP or 2-OH-dATP, terminated at rA3): 5.06%; Percent of Total Product ([2]; Fig 4a, Primer 3, 50 μM each dTTP, dGTP and dATP or 2-OH-dATP, terminated at rA4): 1.19%; Percent of Total Product ([2]; Fig 4a, Primer 3, 50 μM each dTTP, dGTP and dATP or 2-OH-dATP, terminated at rC1): 1.62%; Percent of Total Product ([2]; Fig 4a, Primer 3, 50 μM each dTTP, dGTP and dATP or 2-OH-dATP, terminated at rC2): 10.51%; Percent of Total Product ([2]; Fig 4a, Primer 3, 50 μM each dTTP, dGTP and dATP or 2-OH-dATP, terminated at rC6): 68.71%; Percent of Total Product ([2]; Fig 4a, Primer 3, 50 μM each dTTP, dGTP and dATP or 2-OH-dATP, terminated at rU5 (first)): 12.42%; Percent of Total Product ([2]; Fig 4a, Primer 3, 50 μM each dTTP, dGTP and dATP or 2-OH-dATP, terminated at rU5 (second, after translocation)): 0.49%
